Measured values as given in ChEMBL document CHEMBL3885861, “Open TG-GATES”.

Species: Rattus norvegicus
Experiment: Open TG-GATES - Regimen: Daily Repeat
Type: toxicity, organism-based, Sprague-Dawley
Design: regimen Daily Repeat, gender Male, age 6 weeks
Details: in vivo, po, 500 mg/kg, route gavage, dose level High; for APTT / Bas / Eos / Fbg / Hb / Ht / Lym / MCH / MCHC / MCV / Mono / Neu / PT / Plat / RBC / Ret / WBC: tissue Blood; for KIDNEY_L / KIDNEY_R / KIDNEY_TOTAL: tissue Kidney; for LIVER: tissue Liver; for A/G / ALP / ALT / AST / BUN / CRE / Ca / Cl / DBIL / GLC / IP / K / LDH / Na / PL / RALB / TBIL / TC / TG / TP / gamma-GTP: tissue Plasma

Compound: CN1C(=O)CCS(=O)(=O)C1c1ccc(Cl)cc1 (configuration not stated) [CHLORMEZANONE]
- TERMINAL_BW (72 h, time 3 day): 218.1 g
- APTT (72 h, time 3 day): 22.2 s
- Bas (72 h, time 3 day): 0%
- Eos (72 h, time 3 day): 1%
- Fbg (72 h, time 3 day): 285.2 mg/dL
- Hb (72 h, time 3 day): 13.2 g/dL
- Ht (72 h, time 3 day): 38.9%
- Lym (72 h, time 3 day): 75.2%
- MCH (72 h, time 3 day): 21.2 pg
- MCHC (72 h, time 3 day): 33.9%
- MCV (72 h, time 3 day): 62.8 fL
- Mono (72 h, time 3 day): 3.2%
- Neu (72 h, time 3 day): 20.2%
- PT (72 h, time 3 day): 11.4 s
- Plat (72 h, time 3 day): 115.7 x10_4/uL
- RBC (72 h, time 3 day): 620.2 x10_4/ul
- Ret (72 h, time 3 day): 5.3%
- WBC (72 h, time 3 day): 90.9 x10_2/uL
- KIDNEY_L (72 h, time 3 day): 0.9 g
- KIDNEY_R (72 h, time 3 day): 0.9 g
- KIDNEY_TOTAL (72 h, time 3 day): 1.9 g
- LIVER (72 h, time 3 day): 13.5 g
- A/G (72 h, time 3 day): 0.9
- ALP (72 h, time 3 day): 1900.8 IU/L
- ALT (72 h, time 3 day): 60.6 IU/L
- AST (72 h, time 3 day): 77.2 IU/L
- BUN (72 h, time 3 day): 12.6 mg/dL
- CRE (72 h, time 3 day): 0.2 mg/dL
- Ca (72 h, time 3 day): 10.8 mg/dL
- Cl (72 h, time 3 day): 107.2 meq/L
- DBIL (72 h, time 3 day): 0.02 mg/dL
- GLC (72 h, time 3 day): 179.4 mg/dL
- IP (72 h, time 3 day): 6.9 mg/dL
- K (72 h, time 3 day): 4.3 meq/L
- LDH (72 h, time 3 day): 101.4 IU/L
- Na (72 h, time 3 day): 142 meq/L
- PL (72 h, time 3 day): 157.6 mg/dL
- RALB (72 h, time 3 day): 2.6 g/dL
- TBIL (72 h, time 3 day): 0.05 mg/dL
- TC (72 h, time 3 day): 84.6 mg/dL
- TG (72 h, time 3 day): 99.4 mg/dL
- TP (72 h, time 3 day): 5.6 g/dL
- gamma-GTP (72 h, time 3 day): 1.6 IU/L
- TERMINAL_BW ([…], time 7 day): 254.1 g
- TERMINAL_BW ([…], time 14 day): 312.8 g
- TERMINAL_BW ([…], time 28 day): 364.7 g
- APTT ([…], time 7 day): 22 s
- Bas ([…], time 7 day): 0%
- Eos ([…], time 7 day): 0.8%
- Fbg ([…], time 7 day): 341.2 mg/dL
- Hb ([…], time 7 day): 12.6 g/dL
- Ht ([…], time 7 day): 37.3%
- Lym ([…], time 7 day): 70.4%
- MCH ([…], time 7 day): 20.9 pg
- MCHC ([…], time 7 day): 33.9%
- MCV ([…], time 7 day): 61.5 fL
- Mono ([…], time 7 day): 3.2%
- Neu ([…], time 7 day): 24.8%
- PT ([…], time 7 day): 11.5 s
- Plat ([…], time 7 day): 147.1 x10_4/uL
- RBC ([…], time 7 day): 606.6 x10_4/ul
- Ret ([…], time 7 day): 6.9%
- WBC ([…], time 7 day): 116.2 x10_2/uL
- APTT ([…], time 14 day): 24.3 s
- Bas ([…], time 14 day): 0%
- Eos ([…], time 14 day): 0.6%
- Fbg ([…], time 14 day): 314.6 mg/dL
- Hb ([…], time 14 day): 13.4 g/dL
- Ht ([…], time 14 day): 38.7%
- Lym ([…], time 14 day): 76.8%
- MCH ([…], time 14 day): 20.6 pg
- MCHC ([…], time 14 day): 34.8%
- MCV ([…], time 14 day): 59.4 fL
- Mono ([…], time 14 day): 3.6%
- Neu ([…], time 14 day): 18.2%
- PT ([…], time 14 day): 12 s
- Plat ([…], time 14 day): 122.7 x10_4/uL
- RBC ([…], time 14 day): 651.4 x10_4/ul
- Ret ([…], time 14 day): 6.4%
- WBC ([…], time 14 day): 112.6 x10_2/uL
- APTT ([…], time 28 day): 28.5 s
- Bas ([…], time 28 day): 0%
- Eos ([…], time 28 day): 1.2%
- Fbg ([…], time 28 day): 286.4 mg/dL
- Hb ([…], time 28 day): 13 g/dL
- Ht ([…], time 28 day): 37.8%
- Lym ([…], time 28 day): 77%
- MCH ([…], time 28 day): 20.2 pg
- MCHC ([…], time 28 day): 34.5%
- MCV ([…], time 28 day): 58.5 fL
- Mono ([…], time 28 day): 1.8%
- Neu ([…], time 28 day): 19.6%
- PT ([…], time 28 day): 12.6 s
- Plat ([…], time 28 day): 119.4 x10_4/uL
- RBC ([…], time 28 day): 646.6 x10_4/ul
- Ret ([…], time 28 day): 7.6%
- WBC ([…], time 28 day): 126.7 x10_2/uL
- KIDNEY_L ([…], time 7 day): 1 g
- KIDNEY_R ([…], time 7 day): 1 g
- KIDNEY_TOTAL ([…], time 7 day): 2 g
- KIDNEY_L ([…], time 14 day): 1.2 g
- KIDNEY_R ([…], time 14 day): 1.2 g
- KIDNEY_TOTAL ([…], time 14 day): 2.4 g
- KIDNEY_L ([…], time 28 day): 1.3 g
- KIDNEY_R ([…], time 28 day): 1.3 g
- KIDNEY_TOTAL ([…], time 28 day): 2.5 g
- LIVER ([…], time 7 day): 16 g
- LIVER ([…], time 14 day): 19 g
- LIVER ([…], time 28 day): 20.4 g
- A/G ([…], time 7 day): 0.9
- ALP ([…], time 7 day): 1196.8 IU/L
- ALT ([…], time 7 day): 48.2 IU/L
- AST ([…], time 7 day): 59.8 IU/L
- BUN ([…], time 7 day): 16.6 mg/dL
- CRE ([…], time 7 day): 0.2 mg/dL
- Ca ([…], time 7 day): 11.7 mg/dL
- Cl ([…], time 7 day): 106 meq/L
- DBIL ([…], time 7 day): 0.016 mg/dL
- GLC ([…], time 7 day): 202.2 mg/dL
- IP ([…], time 7 day): 7 mg/dL
- K ([…], time 7 day): 4.2 meq/L
- LDH ([…], time 7 day): 96.2 IU/L
- Na ([…], time 7 day): 143.6 meq/L
- PL ([…], time 7 day): 144.8 mg/dL
- RALB ([…], time 7 day): 3 g/dL
- TBIL ([…], time 7 day): 0.032 mg/dL
- TC ([…], time 7 day): 80.6 mg/dL
- TG ([…], time 7 day): 70.2 mg/dL
- TP ([…], time 7 day): 6.3 g/dL
- gamma-GTP ([…], time 7 day): 1.8 IU/L
- A/G ([…], time 14 day): 0.9
- ALP ([…], time 14 day): 1377.8 IU/L
- ALT ([…], time 14 day): 57.2 IU/L
- AST ([…], time 14 day): 62.4 IU/L
- BUN ([…], time 14 day): 16.4 mg/dL
- CRE ([…], time 14 day): 0.2 mg/dL
- Ca ([…], time 14 day): 11.4 mg/dL
- Cl ([…], time 14 day): 106 meq/L
- DBIL ([…], time 14 day): 0.018 mg/dL
- GLC ([…], time 14 day): 195.6 mg/dL
- IP ([…], time 14 day): 7.1 mg/dL
- K ([…], time 14 day): 4.2 meq/L
- LDH ([…], time 14 day): 122.6 IU/L
- Na ([…], time 14 day): 143.8 meq/L
- PL ([…], time 14 day): 149 mg/dL
- RALB ([…], time 14 day): 2.9 g/dL
- TBIL ([…], time 14 day): 0.084 mg/dL
- TC ([…], time 14 day): 75 mg/dL
- TG ([…], time 14 day): 88 mg/dL
- TP ([…], time 14 day): 6.4 g/dL
- gamma-GTP ([…], time 14 day): 2 IU/L
- A/G ([…], time 28 day): 0.8
- ALP ([…], time 28 day): 1039.2 IU/L
- ALT ([…], time 28 day): 55.2 IU/L
- AST ([…], time 28 day): 59.6 IU/L
- BUN ([…], time 28 day): 16.8 mg/dL
- CRE ([…], time 28 day): 0.3 mg/dL
- Ca ([…], time 28 day): 10.6 mg/dL
- Cl ([…], time 28 day): 106.4 meq/L
- DBIL ([…], time 28 day): 0.014 mg/dL
- GLC ([…], time 28 day): 188.8 mg/dL
- IP ([…], time 28 day): 6.1 mg/dL
- K ([…], time 28 day): 4.2 meq/L
- LDH ([…], time 28 day): 70.8 IU/L
- Na ([…], time 28 day): 143.6 meq/L
- PL ([…], time 28 day): 148 mg/dL
- RALB ([…], time 28 day): 2.9 g/dL
- TBIL ([…], time 28 day): 0.082 mg/dL
- TC ([…], time 28 day): 76 mg/dL
- TG ([…], time 28 day): 67 mg/dL
- TP ([…], time 28 day): 6.5 g/dL
- gamma-GTP ([…], time 28 day): 2.4 IU/L
